Reference: patent US20040110802A1, “Antibacterial benzoic acid derivatives” (priority 2002, published 2004)
≈ marks a conversion by molar mass, not a printed value.

Test system: SAUR 9218
Test: MIC Test Method, standard agar dilution
Assay type: cell-based
Details: agar dilution, Mueller Hinton agar, incubated overnight at 35° C., lowest concentration that inhibits visible growth; for MIC: read-out: SAUR 9218 MIC
Summary of the method: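 Agar dilution in Mueller Hinton agar with serial 2-fold compound dilutions. Staphylococcus aureus strain 9218 spotted at approximately 10^4 to 10^5 cells per spot, incubated overnight at 35 °C; MIC (μg/ml) is the lowest concentration preventing visible growth.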

SMILES	MIC	SAUR 9218 MIC
CCCCCSc1ccc(C(=O)Nc2ccc(C#N)cc2C(=O)O)cn1	0.125 µg/mL (≈ 0.338 µM)	–
CS(=O)(=O)c1ccccc1C(=O)Nc1cccc2cc(C(=O)Nc3ccc(C#N)cc3C(=O)O)[nH]c12	4 µg/mL (≈ 7.96 µM)	–
Cl.Cn1c(C(=O)Nc2ccc(C#N)cc2C(=O)O)cc2cccc(OCC(O)CNc3ccccc3)c21 (centres unmarked)	0.125 µg/mL	–
CCCCCCSc1cnc(C(=O)Nc2ccc(Br)cc2C(=O)O)cn1	0.5 µg/mL (≈ 1.14 µM)	–
CCCCCCSc1cnc(C(=O)Nc2ccc(Cl)cc2C(=O)O)cn1	0.5 µg/mL (≈ 1.27 µM)	–
O=C(Nc1ccc(Br)cc1C(=O)O)c1nnc(SCc2ccccc2)s1	0.125 µg/mL (≈ 0.278 µM)	–
N#Cc1ccc(NC(=O)c2cc3cccc(NC(=O)C4CC4c4ccccc4)c3[nH]2)c(C(=O)O)c1 (centres unmarked)	0.5 µg/mL (≈ 1.08 µM)	–
O=C(O)c1cc(Cl)ccc1NC(=O)c1cc2ccccc2n1Cc1ccccc1	4 µg/mL (≈ 9.88 µM)	–
CCC(C)Oc1ccc2cc(C(=O)Nc3ccc(C#N)cc3C(=O)O)n(C)c2c1 (centres unmarked)	16 µg/mL (≈ 40.9 µM)	–
N#Cc1ccc(NC(=O)c2cc3cccc(NC(=O)Cc4ccccc4)c3[nH]2)c(C(=O)O)c1	0.125 µg/mL (≈ 0.285 µM)	–
O=C(Nc1ccc(Br)cc1C(=O)O)c1ccc2c(c1)OCO2	16 µg/mL (≈ 43.9 µM)	–
COc1ccc(OC)c(NC(=O)Nc2ccc3cc(C(=O)Nc4ccc(C#N)cc4C(=O)O)n(C)c3c2)c1	2 µg/mL (≈ 3.89 µM)	–
Cn1cccc1-c1cnc(C(=O)Nc2ccc(C#N)cc2C(=O)O)o1	2 µg/mL (≈ 5.95 µM)	–
N#Cc1ccc(NC(=O)c2cc3cccnc3s2)c(C(=O)O)c1	4 µg/mL (≈ 12.4 µM)	–
Cn1c(C(=O)Nc2ccc(C#N)cc2C(=O)O)cc2ccc(-c3ccccc3C(F)(F)F)cc21	0.125 µg/mL (≈ 0.27 µM)	–
CCC(C)Sc1cnc(C(=O)Nc2ccc(Cl)cc2C(=O)O)cn1 (centres unmarked)	0.25 µg/mL (≈ 0.683 µM)	–
Cn1c(C(=O)Nc2ccc(C#N)cc2C(=O)O)cc2ccc(NS(=O)(=O)c3cccs3)cc21	0.5 µg/mL (≈ 1.04 µM)	–
CCOc1ccc(CC(=O)Nc2cccc3cc(C(=O)Nc4ccc(C#N)cc4C(=O)O)[nH]c23)cc1	0.5 µg/mL (≈ 1.04 µM)	–
O=C(O)c1cc(Br)ccc1NC(=O)c1ncc(C(F)(F)F)cc1Cl	64 µg/mL (≈ 151 µM)	–
Cn1c(C(=O)Nc2ccc(C#N)cc2C(=O)O)cc2cccc(S(=O)(=O)c3ccccc3)c21	0.125 µg/mL (≈ 0.272 µM)	–
Cc1c(S(=O)(=O)NCCc2ccc(N)cc2)csc1C(=O)Nc1ccc(Br)cc1C(=O)O	8 µg/mL (≈ 14.9 µM)	–
N#Cc1ccc(NC(=O)c2ccc(S(=O)(=O)Cc3ccccc3)nc2)c(C(=O)O)c1	64 µg/mL (≈ 152 µM)	–
Cc1nc2cc(NS(=O)(=O)c3cc(C(=O)Nc4ccc(Br)cc4C(=O)O)sc3C)ccc2s1	32 µg/mL (≈ 56.5 µM)	–
N#Cc1ccc(NC(=O)c2cc3cccc(NC(=O)c4ccc(Cl)nc4)c3[nH]2)c(C(=O)O)c1	1 µg/mL (≈ 2.17 µM)	–
Cn1c(C(=O)Nc2ccc(C#N)cc2C(=O)O)cc2c(Br)ccc(NC(=O)Cc3ccccc3)c21	2 µg/mL (≈ 3.76 µM)	–

SMILES	MIC	SAUR 9218 MIC
COc1cnc(C(=O)Nc2ccc(Br)cc2C(=O)O)cn1	4 µg/mL (≈ 11.4 µM)	–
N#Cc1ccc(NC(=O)c2cc(-c3ccccc3Oc3ccccc3)on2)c(C(=O)O)c1	0.03 µg/mL (≈ 0.0705 µM)	–
O=C(O)c1cc(Br)ccc1NC(=O)c1cc2ccccc2n1Cc1ccccc1	4 µg/mL (≈ 8.9 µM)	–
Cc1sc(C(=O)Nc2ccc(C#N)cc2C(=O)O)cc1S(=O)(=O)N(C)C(C)C(O)c1ccccc1 (centres unmarked) [drawing 953]	–	32 µg/mL
N#Cc1ccc(NC(=O)C2=NS(=O)(=O)c3ccccc32)c(C(=O)O)c1	> 128 µg/mL	–
CCS(=O)(=O)Nc1cccc2cc(C(=O)Nc3ccc(C#N)cc3C(=O)O)n(C)c12	0.5 µg/mL (≈ 1.17 µM)	–
N#Cc1ccc(NC(=O)c2noc3ccc(NC(=O)C4CCC4)cc23)c(C(=O)O)c1	2 µg/mL (≈ 4.95 µM)	–
COCCNc1ccc2onc(C(=O)Nc3ccc(C#N)cc3C(=O)O)c2c1	1 µg/mL (≈ 2.63 µM)	–
Cn1c(C(=O)Nc2ccc(C#N)cc2C(=O)O)cc2cccc(OCc3ccco3)c21	0.125 µg/mL (≈ 0.301 µM)	–
CC1=C(C(=O)Nc2ccc(C#N)cc2C(=O)O)Cc2ccccc21	4 µg/mL (≈ 12.6 µM)	–
N#Cc1ccc(NC(=O)c2ncc(-c3ccc(F)cc3)o2)c(C(=O)O)c1	1 µg/mL (≈ 2.85 µM)	–
O=C(Nc1ccc(Cl)cc1C(=O)O)c1cc(-c2ccccc2NS(=O)(=O)c2ccc(OC(F)(F)F)cc2)on1	8 µg/mL (≈ 13.7 µM)	–
CCCCCCCCCSc1cnc(C(=O)Nc2ccc(C#N)cc2C(=O)O)cn1	2 µg/mL (≈ 4.69 µM)	–
CN(C)c1ccc(CNS(=O)(=O)c2cc(C(=O)Nc3ccc(Br)cc3C(=O)O)cs2)cc1	64 µg/mL (≈ 119 µM)	–
Cc1cccc(CC(=O)Nc2cccc3cc(C(=O)Nc4ccc(C#N)cc4C(=O)O)[nH]c23)c1	0.125 µg/mL (≈ 0.276 µM)	–
CCCCN(CCCC)CCCNS(=O)(=O)c1cc(C(=O)Nc2ccc(Br)cc2C(=O)O)sc1C	> 128 µg/mL	–
CCCCCCSc1ccc(C(=O)Nc2ccc(Cl)cc2C(=O)O)cn1	0.125 µg/mL (≈ 0.318 µM)	–
CC(C)CN1C(=O)c2ccc(C(=O)Nc3ccc(Br)cc3C(=O)O)cc2C1=O	2 µg/mL (≈ 4.49 µM)	–
Cn1c(C(=O)Nc2ccc(C#N)cc2C(=O)O)cc2cccc(NC(=O)c3cccc(S(=O)(=O)N4CCOCC4)c3)c21	2 µg/mL (≈ 3.4 µM)	–
COc1cc2c(cc1OC)CN(S(=O)(=O)c1cc(C(=O)Nc3ccc(C#N)cc3C(=O)O)sc1C)CC2	8 µg/mL (≈ 14.8 µM)	–
O=C(Nc1ccc(O)cc1C(=O)O)c1cc(-c2ccccc2-c2ccccc2)on1	0.125 µg/mL (≈ 0.312 µM)	–
Cc1coc2cnc(C(=O)Nc3ccc(C#N)cc3C(=O)O)cc12	16 µg/mL (≈ 49.8 µM)	–
CCCn1c(C(=O)Nc2ccc(Br)cc2C(=O)O)cc2ccccc21	4 µg/mL (≈ 9.97 µM)	–
Cc1sc(C(=O)Nc2ccc(C#N)cc2C(=O)O)cc1S(=O)(=O)N1CCC(C#N)(c2ccccc2)CC1	8 µg/mL (≈ 15 µM)	–
N#Cc1ccc(NC(=O)c2cc(CN=[N+]=[N-])on2)c(C(=O)O)c1	4 µg/mL (≈ 12.8 µM)	–

SMILES	MIC	SAUR 9218 MIC
O=C(Nc1ccc(Cl)cc1C(=O)O)c1cc(CCCc2ccccc2)on1	0.5 µg/mL (≈ 1.3 µM)	–
CCCCC(CC)C(=O)Nc1cccc2cc(C(=O)Nc3ccc(C#N)cc3C(=O)O)[nH]c12 (centres unmarked)	0.5 µg/mL (≈ 1.12 µM)	–
C=CCn1c(C(=O)Nc2ccc(Br)cc2C(=O)O)cc2ccccc21	8 µg/mL (≈ 20 µM)	–
CCC(=O)COc1ccccc1-c1cc(C(=O)Nc2ccc(O)cc2C(=O)O)no1	1 µg/mL (≈ 2.44 µM)	–
N#Cc1ccc(-c2cnc(C(=O)Nc3ccc(Br)cc3C(=O)O)o2)cc1	8 µg/mL (≈ 19.4 µM)	–
CC(=O)Oc1ccc(N2C(=O)c3ccc(C(=O)Nc4ccc(Br)cc4C(=O)O)cc3C2=O)cc1	64 µg/mL (≈ 122 µM)	–
COCC(=O)Nc1cccc2cc(C(=O)Nc3ccc(C#N)cc3C(=O)O)[nH]c12	4 µg/mL (≈ 10.2 µM)	–
N#Cc1ccc(NC(=O)c2cncc(-c3ccccc3)c2)c(C(=O)O)c1	16 µg/mL (≈ 46.6 µM)	–
O=C(Nc1ccc(Br)cc1C(=O)O)c1coc(CC[C@H](O)CO)n1	> 128 µg/mL	–
N#Cc1ccc(NC(=O)c2cc(-c3ccccc3NS(=O)(=O)c3ccc(OC(F)(F)F)cc3)on2)c(C(=O)O)c1	8 µg/mL (≈ 14 µM)	–
O=C(Nc1ccc(Br)cc1C(=O)O)c1ncc(-c2ccco2)o1	2 µg/mL (≈ 5.3 µM)	–
COc1cc(C(=O)Nc2ccc(Br)cc2C(=O)O)nn1Cc1ccccc1	128 µg/mL (≈ 297 µM)	–
N#Cc1ccc(NC(=O)c2onc3ccccc23)c(C(=O)O)c1	1 µg/mL (≈ 3.25 µM)	–
Cc1sc(C(=O)Nc2ccc(Br)cc2C(=O)O)cc1S(=O)(=O)Nc1ccc(Cl)cc1	4 µg/mL (≈ 7.55 µM)	–
CS(=O)(=O)c1ccc(-c2ccc3onc(C(=O)Nc4ccc(C#N)cc4C(=O)O)c3c2)cc1	0.5 µg/mL (≈ 1.08 µM)	–
Cc1ccccc1-c1cnc(C(=O)Nc2ccc(C#N)cc2C(=O)O)cn1	32 µg/mL (≈ 89.3 µM)	–
N#Cc1ccc(NC(=O)c2cc3cccc(OCc4ccccc4)c3[nH]2)c(C(=O)O)c1	0.125 µg/mL (≈ 0.304 µM)	–
Cc1noc(-c2ccccc2)c1C(=O)Nc1cccc2cc(C(=O)Nc3ccc(C#N)cc3C(=O)O)[nH]c12	0.5 µg/mL (≈ 0.989 µM)	–
CCCCCCOc1ccccc1-c1cc(C(=O)Nc2ccc(C#N)cc2C(=O)O)no1	0.5 µg/mL (≈ 1.15 µM)	–
Cc1oc(C(=O)Nc2ccc(C#N)cc2C(=O)O)cc1S(=O)(=O)N1CCCC1CO (centres unmarked)	8 µg/mL (≈ 18.5 µM)	–
N#Cc1ccc(NC(=O)c2nc3ccccc3s2)c(C(=O)O)c1	0.25 µg/mL (≈ 0.773 µM)	–
COC(=O)CSc1ccc(C(=O)Nc2ccc(C#N)cc2C(=O)O)cn1	0.5 µg/mL (≈ 1.35 µM)	–
Cc1c(S(=O)(=O)NC2Cc3ccccc3C2)csc1C(=O)Nc1ccc(Br)cc1C(=O)O	16 µg/mL (≈ 29.9 µM)	–
CCCn1c(C(=O)Nc2ccc(C#N)cc2C(=O)O)cc2ccccc21	2 µg/mL (≈ 5.76 µM)	–
CCOC(=O)CC(=O)Nc1cccc2cc(C(=O)Nc3ccc(C#N)cc3C(=O)O)[nH]c12	0.5 µg/mL (≈ 1.15 µM)	–

SMILES	MIC	SAUR 9218 MIC
N#Cc1ccc(NC(=O)c2cc(-c3ccccc3OCCCOc3ccccc3)on2)c(C(=O)O)c1	0.5 µg/mL (≈ 1.03 µM)	–
N#Cc1ccc(NC(=O)c2ncc(-c3ccccc3)s2)c(C(=O)O)c1	1 µg/mL (≈ 2.86 µM)	–
O=C(Nc1ccc(Br)cc1C(=O)O)c1csc(S(=O)(=O)N2CCc3ccc(Cl)cc32)c1	8 µg/mL (≈ 14.8 µM)	–
Cn1c(C(=O)Nc2ccc(C#N)cc2C(=O)O)cc2cccc(NC(=O)NCc3ccccc3)c21	0.125 µg/mL (≈ 0.267 µM)	–
N#Cc1ccc(NC(=O)c2cc3cccc(NC(=O)c4cccc(F)c4)c3[nH]2)c(C(=O)O)c1	0.5 µg/mL (≈ 1.13 µM)	–
CC(C)CCSc1cnc(C(=O)Nc2ccc(C#N)cc2C(=O)O)cn1	0.125 µg/mL (≈ 0.337 µM)	–
N#Cc1ccc(NC(=O)c2ccco2)c(C(=O)O)c1	> 128 µg/mL	–
N#Cc1ccc(NC(=O)c2noc3cc(O)ccc23)c(C(=O)O)c1	1 µg/mL (≈ 3.09 µM)	–
O=C(Nc1ccc(Br)cc1C(=O)O)c1cc(Cl)nc(Cl)c1	32 µg/mL (≈ 82 µM)	–
COCC(=O)Nc1ccc2onc(C(=O)Nc3ccc(C#N)cc3C(=O)O)c2c1	4 µg/mL (≈ 10.1 µM)	–
N#Cc1ccc(NC(=O)c2cc(SCc3ccccc3)on2)c(C(=O)O)c1	0.125 µg/mL (≈ 0.329 µM)	–
Cc1cnc(C(=O)Nc2ccc(Br)cc2C(=O)O)cn1	128 µg/mL (≈ 381 µM)	–
N#Cc1ccc(NC(=O)c2noc3ccccc23)c(C(=O)O)c1	0.125 µg/mL (≈ 0.407 µM)	–
CC1=C(C(=O)Nc2ccc(Br)cc2C(=O)O)Cc2ccccc21	8 µg/mL (≈ 21.5 µM)	–
N#Cc1ccc(NC(=O)c2nsc(-c3ccccc3)c2Cl)c(C(=O)O)c1	0.5 µg/mL (≈ 1.3 µM)	–
Cn1c(C(=O)Nc2cccc3cc(C(=O)Nc4ccc(C#N)cc4C(=O)O)n(C)c23)cc2ccccc21	0.125 µg/mL (≈ 0.254 µM)	–
CC(=O)Nc1cccc(-c2ccc3onc(C(=O)Nc4ccc(C#N)cc4C(=O)O)c3c2)c1	0.5 µg/mL (≈ 1.14 µM)	–
N#Cc1ccc(NC(=O)c2cc3cccc(NC(=O)CSc4ccccc4)c3[nH]2)c(C(=O)O)c1	0.5 µg/mL (≈ 1.06 µM)	–
O=C(Nc1ccc(Br)cc1C(=O)O)c1cc(-c2ccccc2)n[nH]1	> 128 µg/mL	–
C#Cc1cncc(C(=O)Nc2ccc(C#N)cc2C(=O)O)c1	16 µg/mL (≈ 54.9 µM)	–
O=C(Nc1ccc(Br)cc1C(=O)O)c1cnc(/C=C/C2COC3(CCCCC3)O2)cn1 (centres unmarked)	8 µg/mL (≈ 16.4 µM)	–
CCCCC(C)Sc1ccc(C(=O)Nc2ccc(C#N)cc2C(=O)O)cn1 (centres unmarked)	0.125 µg/mL (≈ 0.326 µM)	–
CCSc1ccc(C(=O)Nc2cccc3cc(C(=O)Nc4ccc(C#N)cc4C(=O)O)[nH]c23)cc1	0.25 µg/mL (≈ 0.516 µM)	–
